Laboratory results taken from PubChem BioAssay AID2060490 (Molecular Pharmacology Branch, DTP, NCI, 2025).

Tested on: 885512-296-R-J2-PDC complex spheroid viability
Assay: Anticancer human tumor 885512-296-R-J2-PDC patient-derived breast carcinoma cell line growth inhibition [GQUAD]
Conditions: for IC50: curve of first compound; for viability, T/C: stronger effect = lower value
How it was run: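 Multi-cell-type spheroids of tumor cells with HUVEC and mesenchymal stem cells, treated with drug combinations. Concentrations descend in half-log steps from near clinical Cmax, or from 10 microM where Cmax is unknown; viability read-out.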

[1] = second compound 0.0316 µM, first compound 0.0316 µM
[2] = second compound 0.0316 µM, first compound 0.1 µM
[3] = second compound 0.0316 µM, first compound 0.316 µM
[4] = second compound 0.0316 µM, first compound 1 µM
[5] = second compound 0.0316 µM, first compound 3.16 µM
[6] = second compound 0.0316 µM, first compound 10 µM
[7] = second compound 0.1 µM, first compound 0.0316 µM
[8] = second compound 0.1 µM, first compound 0.1 µM
[9] = second compound 0.1 µM, first compound 0.316 µM
[10] = second compound 0.1 µM, first compound 1 µM
[11] = second compound 0.1 µM, first compound 3.16 µM
[12] = second compound 0.1 µM, first compound 10 µM
[13] = second compound 0.316 µM, first compound 0.0316 µM
[14] = second compound 0.316 µM, first compound 0.1 µM
[15] = second compound 0.316 µM, first compound 0.316 µM
[16] = second compound 0.316 µM, first compound 1 µM
[17] = second compound 0.316 µM, first compound 3.16 µM
[18] = second compound 0.316 µM, first compound 10 µM
[19] = second compound 1 µM, first compound 0.0316 µM
[20] = second compound 1 µM, first compound 0.1 µM
[21] = second compound 1 µM, first compound 0.316 µM
[22] = second compound 1 µM, first compound 1 µM
[23] = second compound 1 µM, first compound 3.16 µM
[24] = second compound 1 µM, first compound 10 µM
[25] = second compound 3.16 µM, first compound 0.0316 µM
[26] = second compound 3.16 µM, first compound 0.1 µM
[27] = second compound 3.16 µM, first compound 0.316 µM
[28] = second compound 3.16 µM, first compound 1 µM
[29] = second compound 3.16 µM, first compound 3.16 µM
[30] = second compound 3.16 µM, first compound 10 µM
[31] = second compound 10 µM, first compound 0.0316 µM
[32] = second compound 10 µM, first compound 0.1 µM
[33] = second compound 10 µM, first compound 0.316 µM
[34] = second compound 10 µM, first compound 1 µM
[35] = second compound 10 µM, first compound 3.16 µM
[36] = second compound 10 µM, first compound 10 µM
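Also: spheroids exposed to the compounds for one week.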
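For viability, T/C in this document: percent of tumor spheroid viability relative to DMSO vehicle control wells.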

C=CC(=O)N1CCN(c2nc(=O)n(-c3c(C)ccnc3C(C)C)c3nc(-c4c(O)cccc4F)c(F)cc23)C(C)C1 (stereo not drawn) + Cc1[nH]c2ccc(F)cc2c1-c1nc2c3cccnc3c3ncccc3c2[nH]1
IC50 (second compound 0.0316 µM): > 10000 nM
IC50 (second compound 0.1 µM): > 10000 nM
IC50 (second compound 0.316 µM): > 10000 nM
IC50 (second compound 1 µM): > 10000 nM
IC50 (second compound 3.16 µM): < 31.6 nM
IC50 (second compound 10 µM): < 31.6 nM
viability, T/C [1]: 122%
viability, T/C [2]: 91%
viability, T/C [3]: 84.7%
viability, T/C [4]: 106%
viability, T/C [5]: 111%
viability, T/C [6]: 96.3%
viability, T/C [7]: 118%
viability, T/C [8]: 96.2%
viability, T/C [9]: 97.4%
viability, T/C [10]: 102%
viability, T/C [11]: 103%
viability, T/C [12]: 93.4%
viability, T/C [13]: 92.9%
viability, T/C [14]: 103%
viability, T/C [15]: 102%
viability, T/C [16]: 102%
viability, T/C [17]: 91.9%
viability, T/C [18]: 88.8%
viability, T/C [19]: 78.9%
viability, T/C [20]: 79.1%
viability, T/C [21]: 95.7%
viability, T/C [22]: 90%
viability, T/C [23]: 77.3%
viability, T/C [24]: 72.1%
viability, T/C [25]: 30.6%
viability, T/C [26]: 22.9%
viability, T/C [27]: 21.2%
viability, T/C [28]: 31.2%
viability, T/C [29]: 32.9%
viability, T/C [30]: 27.2%
viability, T/C [31]: 1.88%
viability, T/C [32]: 1.76%
viability, T/C [33]: 2.07%
viability, T/C [34]: 3.47%
viability, T/C [35]: 6.47%
viability, T/C [36]: 3.97%

O=C(NO)c1cnc(N2CCN(S(=O)(=O)c3ccc4ccccc4c3)CC2)nc1 + Cc1[nH]c2ccc(F)cc2c1-c1nc2c3cccnc3c3ncccc3c2[nH]1
IC50 (second compound 0.0316 µM): < 31.6 nM
IC50 (second compound 0.1 µM): < 31.6 nM
IC50 (second compound 0.316 µM): < 31.6 nM
IC50 (second compound 1 µM): < 31.6 nM
IC50 (second compound 3.16 µM): < 31.6 nM
IC50 (second compound 10 µM): < 31.6 nM
viability, T/C [1]: 7.49%
viability, T/C [2]: 2.85%
viability, T/C [3]: 3.25%
viability, T/C [4]: 3.35%
viability, T/C [5]: 2.95%
viability, T/C [6]: 3.28%
viability, T/C [7]: 6.66%
viability, T/C [8]: 3.49%
viability, T/C [9]: 2.89%
viability, T/C [10]: 3.93%
viability, T/C [11]: 2.97%
viability, T/C [12]: 4.1%
viability, T/C [13]: 7.12%
viability, T/C [14]: 4.32%
viability, T/C [15]: 3.29%
viability, T/C [16]: 3.62%
viability, T/C [17]: 3.66%
viability, T/C [18]: 4.67%
viability, T/C [19]: 6.46%
viability, T/C [20]: 4.49%
viability, T/C [21]: 3.76%
viability, T/C [22]: 5.02%
viability, T/C [23]: 5.46%
viability, T/C [24]: 3.77%
viability, T/C [25]: 2.35%
viability, T/C [26]: 2.1%
viability, T/C [27]: 2.47%
viability, T/C [28]: 2.68%
viability, T/C [29]: 1.7%
viability, T/C [30]: 2.56%
viability, T/C [31]: 1.59%
viability, T/C [32]: 2.99%
viability, T/C [33]: 1.66%
viability, T/C [34]: 1.46%
viability, T/C [35]: 1.54%
viability, T/C [36]: 2.58%

Cc1[nH]c2ccccc2c1CCNCc1ccc(/C=C/C(=O)NO)cc1 + Cc1[nH]c2ccc(F)cc2c1-c1nc2c3cccnc3c3ncccc3c2[nH]1
IC50 (second compound 0.0316 µM): > 316 nM
IC50 (second compound 0.1 µM): > 316 nM
IC50 (second compound 0.316 µM): > 316 nM
IC50 (second compound 1 µM): > 316 nM
IC50 (second compound 3.16 µM): < 0.999 nM
IC50 (second compound 10 µM): < 0.999 nM
viability, T/C (second compound 0.0316 µM, first compound 0.000999 µM): 99.3%
viability, T/C (second compound 0.0316 µM, first compound 0.00316 µM): 114%
viability, T/C (second compound 0.0316 µM, first compound 0.00999 µM): 97.1%
viability, T/C [1]: 94.9%
viability, T/C (second compound 0.0316 µM, first compound 0.0999 µM): 100%
viability, T/C [3]: 78.2%
viability, T/C (second compound 0.1 µM, first compound 0.000999 µM): 99.7%
viability, T/C (second compound 0.1 µM, first compound 0.00316 µM): 97.1%
viability, T/C (second compound 0.1 µM, first compound 0.00999 µM): 94.7%
viability, T/C [7]: 92.1%
viability, T/C (second compound 0.1 µM, first compound 0.0999 µM): 103%
viability, T/C [9]: 82.4%
viability, T/C (second compound 0.316 µM, first compound 0.000999 µM): 92.5%
viability, T/C (second compound 0.316 µM, first compound 0.00316 µM): 88.4%
viability, T/C (second compound 0.316 µM, first compound 0.00999 µM): 90.2%
viability, T/C [13]: 87.3%
viability, T/C (second compound 0.316 µM, first compound 0.0999 µM): 85.7%
viability, T/C [15]: 69.5%
viability, T/C (second compound 1 µM, first compound 0.000999 µM): 75.9%
viability, T/C (second compound 1 µM, first compound 0.00316 µM): 53.9%
viability, T/C (second compound 1 µM, first compound 0.00999 µM): 62.3%
viability, T/C [19]: 65.9%
viability, T/C (second compound 1 µM, first compound 0.0999 µM): 53.7%
viability, T/C [21]: 56.4%
viability, T/C (second compound 3.16 µM, first compound 0.000999 µM): 5.78%
viability, T/C (second compound 3.16 µM, first compound 0.00316 µM): 9.7%
viability, T/C (second compound 3.16 µM, first compound 0.00999 µM): 7.26%
viability, T/C [25]: 6.61%
viability, T/C (second compound 3.16 µM, first compound 0.0999 µM): 5.06%
viability, T/C [27]: 4.88%
viability, T/C (second compound 10 µM, first compound 0.000999 µM): 1.15%
viability, T/C (second compound 10 µM, first compound 0.00316 µM): 1.37%
viability, T/C (second compound 10 µM, first compound 0.00999 µM): 1.33%
viability, T/C [31]: 2.33%
viability, T/C (second compound 10 µM, first compound 0.0999 µM): 1.05%
viability, T/C [33]: 1.69%

O=c1[nH]cc(F)c(=O)[nH]1 + CN(C)c1ccc(Nc2c3ccc(NC(=O)CCN4CCCC4)cc3nc3cc(NC(=O)CCN4CCCC4)ccc23)cc1
IC50 (second compound 0.0316 µM): > 10000 nM
IC50 (second compound 0.1 µM): > 10000 nM
IC50 (second compound 0.316 µM): > 10000 nM
IC50 (second compound 1 µM): > 10000 nM
IC50 (second compound 3.16 µM): > 10000 nM
IC50 (second compound 10 µM): < 31.6 nM
viability, T/C [1]: 100%
viability, T/C [2]: 92.7%
viability, T/C [3]: 91.6%
viability, T/C [4]: 98.8%
viability, T/C [5]: 58.7%
viability, T/C [6]: 64.3%
viability, T/C [7]: 101%
viability, T/C [8]: 108%
viability, T/C [9]: 117%
viability, T/C [10]: 96.4%
viability, T/C [11]: 59.5%
viability, T/C [12]: 60.1%
viability, T/C [13]: 105%
viability, T/C [14]: 98.7%
viability, T/C [15]: 120%
viability, T/C [16]: 102%
viability, T/C [17]: 62.3%
viability, T/C [18]: 60%
viability, T/C [19]: 96.4%
viability, T/C [20]: 102%
viability, T/C [21]: 97.5%
viability, T/C [22]: 84%
viability, T/C [23]: 55.8%
viability, T/C [24]: 58.4%
viability, T/C [25]: 90.9%
viability, T/C [26]: 96.9%
viability, T/C [27]: 104%
viability, T/C [28]: 77.9%
viability, T/C [29]: 64.3%
viability, T/C [30]: 59.1%
viability, T/C [31]: 24.8%
viability, T/C [32]: 20.1%
viability, T/C [33]: 19.2%
viability, T/C [34]: 25.5%
viability, T/C [35]: 23.2%
viability, T/C [36]: 18%
